From ChEMBL document CHEMBL6134844, “Development of Next-Generation Antimalarial Acridones with Radical Cure Potential” (J Med Chem, 2025)
Activity calls are given as the source filed them. No cut-off for these calls is given here.

Key:
[1] = (§1) Selectivity index, ratio of CC50 for Macaca mulatta hepatocytes to IC50 for antiplasmodial activity against schizont Plasmodium cynomolgi B strain infected in Macaca mulatta hepatocytes incubated with sporozoite containing salivary gland homogenate obtained from dissected Anopheles dirus mosquitoes (infected with Plasmodium cynomolgi B strain) treatment started on day 4 post infection and continued daily for 4 days into fresh changed media until day 8 assessed as Liver stage (LS) activity by measuring prophylactic mode by immunofluorescent staining analysis; type: toxicity, cell-based; details: rhesus monkey, read-out: Selectivity Index
Plasmodium cynomolgi [2] = test: as §1, with “Antiplasmodial” for “Selectivity index, ratio of CC50 for Macaca mulatta hepatocytes to IC50 for antiplasmodial”, “hypnozoite” for “schizont”, “radical cure” for “prophylactic”; type: functional, organism-based; details: Hepatocyte
[3] = as §1, with “hypnozoite” for “schizont”; type: toxicity, cell-based; details: rhesus monkey, read-out: Selectivity Index
Plasmodium falciparum [4] = test: Antiplasmodial activity against asexual blood-stage (ABS) ATV-resistant clinical isolate Plasmodium falciparum Tm90-C2B infected in human erythrocytes assessed as reduction in fluorescence measured after 72 hrs by Malaria SYBR Green I-based Fluorescence (MSF) assay; type: functional, organism-based; details: Erythrocyte
HepG2 = test: Cytotoxicity against human HepG2 cells assessed as cell viability measured after 48 hrs by MTT assay; type: functional, cell-based; details: HepG2, 48 h
Plasmodium falciparum [5] = test: Antiplasmodial activity against asexual blood-stage (ABS) MDR Plasmodium falciparum Dd2 infected in human erythrocytes assessed as reduction in fluorescence measured after 72 hrs by Malaria SYBR Green I-based Fluorescence (MSF) assay; type: functional, organism-based; details: Dd2, Erythrocyte
Plasmodium yoelii [6] = test: In vivo antiplasmodial activity against asexual blood-stage (ABS) Plasmodium yoelii MRA-428 infected in 4-day suppression CF1 mouse model assessed as reduction in parasitemia by measuring cured mouse at 80 mg/kg, po treated 24 hrs post infection daily for 4 days; type: functional, organism-based
Plasmodium cynomolgi [7] = test: as §1, with “Antiplasmodial” for “Selectivity index, ratio of CC50 for Macaca mulatta hepatocytes to IC50 for antiplasmodial”, “radical cure” for “prophylactic”; type: functional, organism-based; details: Hepatocyte
Plasmodium falciparum [8] = test: Antiplasmodial activity against asexual blood-stage (ABS) CQ-sensitive Plasmodium falciparum D6 infected in human erythrocytes assessed as reduction in fluorescence measured after 72 hrs by Malaria SYBR Green I-based Fluorescence (MSF) assay; type: functional, organism-based; details: D6, Erythrocyte
Plasmodium yoelii [9] = test: In vivo antiplasmodial activity against asexual blood-stage (ABS) Plasmodium yoelii MRA-428 infected in 4-day suppression CF1 mouse model assessed as reduction in parasitemia treated 24 hrs post infection daily measured on day 4; type: functional
[10] = Toxicity in CF1 mouse infected with asexual blood-stage (ABS) Plasmodium yoelii MRA-428 assessed as behavioural change at 0.3 to 30 mg/kg, po treated 24 hrs post infection measured after 4 days; type: organism-based; details: in vivo, dose 0.3-30 mg/kg
[11] = Toxicity in CF1 mouse infected with asexual blood-stage (ABS) Plasmodium yoelii MRA-428 assessed as clinical toxicity at 0.3 to 30 mg/kg, po treated 24 hrs post infection measured after 4 days; type: organism-based; details: in vivo, dose 0.3-30 mg/kg
Plasmodium cynomolgi [12] = test: as §1, with “Antiplasmodial” for “Selectivity index, ratio of CC50 for Macaca mulatta hepatocytes to IC50 for antiplasmodial”, “hypnozoite” for “schizont”; type: functional, organism-based; details: Hepatocyte
Hepatocyte = test: (§2) Cytotoxicity against Macaca mulatta hepatocytes assessed as cell viability measured after 48 hrs by MTT assay; type: toxicity, cell-based; details: rhesus monkey, 48 h
[13] = mouse, microsomes, 1 h
Plasmodium cynomolgi [14] = test: as §1, with “Antiplasmodial” for “Selectivity index, ratio of CC50 for Macaca mulatta hepatocytes to IC50 for antiplasmodial”; type: functional, organism-based; details: Hepatocyte
[15] = Half life in male ICR-CD1 mouse liver at 80 mg/kg, po; type: ADME, organism-based
[16] = as §1, with “radical cure” for “prophylactic”; type: toxicity, cell-based; details: rhesus monkey, read-out: Selectivity Index
Plasmodium berghei [17] = test: In vivo antiplasmodial activity against luciferase expressing liver stage Plasmodium berghei ANKA MRA-868 sporozoites infected in Albino C57BL/6 mouse model assessed as protection at 10 mg/kg, po daily measured 24 to 72 hrs by real-time In Vivo Imaging System (IVIS); type: functional; details: time lower 24.0 hrs, time upper […]
[18] = as §1, with “hypnozoite” for “schizont”, “radical cure” for “prophylactic”; type: toxicity, cell-based; details: rhesus monkey, read-out: Selectivity Index
[19] = AUC(0 to infinity) in male ICR-CD1 mouse liver at 80 mg/kg, po; type: ADME, organism-based
[20] = human, microsomes, 1 h
Plasmodium falciparum [21] = test: Ex vivo antiplasmodial activity against clinical isolate Plasmodium falciparum isolated from Ugandan measured after 72 hrs by growth inhibition assay; type: functional, organism-based
[22] = AUCextrap in male ICR-CD1 mouse liver at 80 mg/kg, po; type: ADME, organism-based
[23] = AUClast in male ICR-CD1 mouse liver at 80 mg/kg, po; type: ADME, organism-based
[24] = AUCextrap in male ICR-CD1 mouse plasma at 80 mg/kg, po; type: ADME, organism-based
Plasmodium berghei [25] = test: In vivo antiplasmodial activity against luciferase expressing liver stage Plasmodium berghei ANKA MRA-868 sporozoites infected in Albino C57BL/6 mouse model assessed as protection at 4 mg/kg, po daily measured 24 to 72 hrs by real-time In Vivo Imaging System (IVIS); type: functional, organism-based; details: time lower 24.0 hrs, time upper […]
[26] = Apparent oral clearance in male ICR-CD1 mouse liver at 80 mg/kg, po; type: ADME, organism-based
[27] = Cmax in male ICR-CD1 mouse liver at 80 mg/kg, po; type: ADME, organism-based
[28] = Tmax in male ICR-CD1 mouse plasma at 80 mg/kg, po; type: ADME, organism-based
[29] = as §2; type: toxicity, cell-based, Hepatocyte; details: rhesus monkey
in vitro = details: human, liver microsomes
Plasmodium yoelii [30] = test: In vivo antiplasmodial activity against asexual blood-stage (ABS) Plasmodium yoelii MRA-428 infected in 4-day suppression CF1 mouse model assessed as reduction in parasitemia by measuring protection at 10 mg/kg, po treated 24 hrs post infection daily for 4 days relative to control; type: functional; parameters: scale not given: the % may be the effect or the level left
Plasmodium yoelii [31] = test: In vivo antiplasmodial activity against asexual blood-stage (ABS) Plasmodium yoelii MRA-428 infected in 4-day suppression CF1 mouse model assessed as reduction in parasitemia by measuring cured mouse at 60 mg/kg, po single dose treated 24 hrs post infection; type: functional, organism-based
Plasmodium yoelii [32] = test: In vivo antiplasmodial activity against asexual blood-stage (ABS) Plasmodium yoelii MRA-428 infected in 4-day suppression CF1 mouse model assessed as reduction in parasitemia by measuring cured mouse at 100 mg/kg, po single dose treated 24 hrs post infection; type: functional, organism-based
Plasmodium yoelii [33] = test: In vivo antiplasmodial activity against asexual blood-stage (ABS) Plasmodium yoelii MRA-428 infected in 4-day suppression CF1 mouse model assessed as reduction in parasitemia by measuring protection at 30 mg/kg, po treated 24 hrs post infection daily measured up to 28 days; type: functional, organism-based; details: time <= 28.0 day
Plasmodium yoelii [34] = test: In vivo antiplasmodial activity against asexual blood-stage (ABS) Plasmodium yoelii MRA-428 infected in 4-day suppression CF1 mouse model assessed as reduction in parasitemia by measuring cured mouse at 100 mg/kg, po treated 24 hrs post infection daily for 4 days; type: functional, organism-based

SMILES | selectivity ratio at 96 h [1] | IC50 (Plasmodium cynomolgi [2]) [nM] | selectivity ratio at 96 h [3] | IC50 (Plasmodium falciparum [4]) [nM] | IC50 (HepG2) [nM] | IC50 (Plasmodium falciparum [5]) [nM] | IC50 (Plasmodium cynomolgi [7]) [nM] | IC50 (Plasmodium falciparum [8]) [nM] | ED90 (Plasmodium yoelii [9]) [mg/kg] | Activity [10] | Activity [11] | IC50 (Plasmodium cynomolgi [12]) [nM] | CC50 (Hepatocyte) [nM] | CLH [13] [µL/min/mg] | IC50 (Plasmodium cynomolgi [14]) [nM] | selectivity ratio at 96 h [16] | selectivity ratio at 96 h [18] | t1/2 [20] [h] | ED50 (Plasmodium yoelii [9]) [mg/kg] | CC50 at 48 h [29] [nM] | other results
O=c1c2cc(Oc3ccc(OC(F)(F)F)cc3)ccc2[nH]c2cc(Cl)cc(F)c12 | > 667 | > 20000 | > 60.6 | 599 | > 200000 | 4.27 | > 20000 | 4.18 | 1.98 | Non-toxic | Non-toxic | 330 | > 20000 | 45.4 | 30 | – | – | – | – | – | Activity (Plasmodium yoelii [6]): Active
O=c1c2cc(F)c(Oc3ccc(OC(F)(F)F)cc3)cc2[nH]c2cc(Cl)cc(F)c12 | 14.5 | 560 | 3.62 | 0.475 | > 200000 | 0.00042 | 340 | 0.00074 | 0.3 | Non-toxic | Non-toxic | 160 | 580 | 16.1 | 40 | 1.71 | 1.04 | > 1 | 0.16 | – | half-life [15]: 20.9 h; Activity (Plasmodium berghei [17]): Not active; Out Of 5 - 0 Mouse Cured; AUC(0-inf) [19]: 41300 ng·h/mL; IC50 (Plasmodium falciparum [21]): 0.957 nM; AUC [22]: 3.14%; AUC(0-t) [23]: 40000 ng·h/mL; AUC [24]: 64.6 ng·h/mL; Activity (Plasmodium berghei [25]): Not active; Out Of 5 - 0 Mouse Cured; CL/F [26]: 1.05 mL/min/kg; Cmax [27]: 7980 ng/mL; Tmax [28]: 4 h
O=c1c2ccc(Oc3cccc(C(F)(F)F)c3)cc2[nH]c2cc(F)c(Cl)cc12 | > 55.6 | > 20000 | > 14.4 | 59.4 | > 200000 | 3.87 | > 20000 | 5.19 | – | – | – | 1390 | – | 14.2 | 360 | – | – | – | – | > 20000 | half-life at 1 h (in vitro): > 1 h
O=c1c2ccc(Oc3ccc(OC(F)(F)F)cc3)cc2[nH]c2ccc(F)c(Cl)c12 | 111 | 6750 | 16.7 | 52.8 | > 200000 | 0.84 | 3450 | 1.03 | 0.33 | Non-toxic | Non-toxic | 530 | 8870 | 11.6 | 80 | 2.57 | 1.31 | > 1 | 0.29 | – | Activity (Plasmodium yoelii [30]): 100%; Activity (Plasmodium yoelii [31]): Active; Activity (Plasmodium yoelii [32]): Active
O=c1c2ccc(Oc3cccc(OC(F)(F)F)c3)cc2[nH]c2cc(F)c(Cl)cc12 | > 167 | > 20000 | > 23 | 61.2 | > 200000 | 3.15 | > 20000 | 3.57 | – | – | – | 870 | – | < 3.125 | 120 | – | – | – | – | > 20000 | half-life at 1 h (in vitro): > 1 h
O=c1c2ccc(OCc3cccc(OC(F)(F)F)c3)cc2[nH]c2cc(Cl)cc(F)c12 | 165 | 710 | 12.6 | 0.977 | > 200000 | 0.01 | 620 | 0.077 | – | Non-toxic | Non-toxic | 250 | 3310 | 57.4 | 20 | 5.34 | 4.66 | > 1 | – | – | Activity (Plasmodium yoelii [33]): Active; Out Of 4 - 3 Mouse Cured; Activity (Plasmodium yoelii [34]): Active
